Columns and labels:
CFTR = CFTR (Homo sapiens, UniProt P13569); test: standard Ussing Chamber Assay for CFTR potentiator activity; type: cell-based
F508del in NIH 3T3 cells = target: T1, F508del in NIH 3T3 cells (Homo sapiens, UniProt P13569, DEL508-508); test: 3T3 assay: membrane potential optical assay for F508del correction; type: cell-based, mouse; settings: F508del NIH 3T3 cells; for Emax: NIH3T3, efficacy compared to lumacaftor in combination with acutely added 300 nM Ivacaftor, read-out: 3T3 Max Activity (%)
T1 construct: expressed in transfected cells
Source text: Membrane Potential Optical Methods for Assaying F508del Modulation Properties of Compounds The assay utilizes fluorescent voltage sensing dyes to measure changes in membrane potential using a fluorescent plate reader (e.g., FLIPR III, Molecular Devices, Inc.) as a readout for increase in functional F508del in NIH 3T3 cells. The driving force for the response is the creation of a chloride ion gradient in conjunction with channel activation by a single liquid addition step after the cells have previously been treated with compounds and subsequently loaded with a voltage sensing dye. 2. Identification of Corrector Compounds To identify correctors of F508del, a single-addition HTS assay format was developed. This HTS assay utilizes fluorescent voltage sensing dyes to measure changes in membrane potential on the FLIPR III as a measurement for increase in gating (conductance) of F508del in F508del NIH 3T3 cells. The F508del NIH 3T3 cell cultures were incubated with the corrector compounds at a range of concentrations for 18-24 hours at 37° C., and subsequently loaded with a redistribution dye. The driving force for the response is a Cl^− ion gradient in conjunction with channel activation with forskolin in a single liquid addition step using a fluorescent plate reader such as FLIPR III. […] Solutions […] Chloride-free bath solution: Chloride salts in Bath Solution #1 (above) are substituted with gluconate salts. 4. Cell Culture NIH3T3 mouse fibroblasts stably expressing F508del are used for optical measurements of membrane potential. The cells are maintained at 37° C. in 5% CO2 and 90% humidity in Dulbecco's modified Eagle's medium supplemented with 2 mM glutamine, 10% fetal bovine serum, 1×NEAA, b-ME, 1×pen/strep, and 25 mM HEPES in 175 cm^2 culture flasks. For all optical assays, the cells were seeded at ˜20,000/well in 384-well Matrigel-coated plates. For the correction assays, the cells are cultured at 37° C. with and without compounds for 16-24 hours.

[1] = target: CFTR-mediated chloride transport in human intestinal epithelial enteroid cells (Homo sapiens, UniProt P13569); test: Enteroid assay: membrane potential dye assay (Enteroid Assay A or B); type: cell-based; settings: for Ent. Max Activity (%): chloride transport as percentage of triple combination control (% Activity)
Protocol: Base medium (ADF+++) consisted of Advanced DMEM/Ham's F12, 2 mM Glutamax, 10 mM HEPES, […] penicillin/streptomycin.
Intestinal enteroid maintenance medium (IEMM) consisted of ADF+++, 1×B27 supplement, 1×N2 supplement, 1.25 mM N-acetyl cysteine, 10 mM Nicotinamide, 50 ng/mL hEGF, 10 nM Gastrin, 1 μg/mL hR-spondin-1, 100 ng/mL hNoggin, TGF-b type 1 inhibitor A-83-01, 100 μg/mL Primocin, 10 μM P38 MAPK inhibitor SB202190.
Bath 1 Buffer consisted of 1 mM MgCl2, 160 mM NaCl, 4.5 mM KCl, 10 mM HEPES, 10 mM Glucose, 2 mM CaCl2).
Chloride Free Buffer consisted of 1 mM Magnesium Gluconate, 2 mM Calcium Gluconate, 4.5 mM Potassium Gluconate, 160 mM Sodium Gluconate, 10 mM HEPES, 10 mM Glucose.
Bath1 Dye Solution consisted of Bath 1 Buffer, 0.04% Pluronic F127, 20 μM Methyl Oxonol, 30 μM CaCCinh-A01, 30 μM Chicago Sky Blue.
Chloride Free Dye Solution consisted of Chloride Free Buffer, 0.04% Pluronic F127, 20 μM Methyl Oxonol, 30 μM CaCCinh-A01, 30 μM Chicago Sky Blue.
Chloride Free Dye Stimulation Solution consisted of Chloride Free Dye Solution, 10 μM forskolin, 100 μM IBMX, and 300 nM Compound III.
Human intestinal epithelial enteroid cells were obtained from the Hubrecht Institute for Developmental Biology and Stem Cell Research, Utrecht, The Netherlands and expanded in T-Flasks as previously described (Dekkers J F, Wiegerinck C L, de Jonge H R, Bronsveld I, Janssens H M, de Winter-de Groot K M, Brandsma A M, de Jong N W M, Bijvelds M J C, Scholte B J, Nieuwenhuis E E S, van den Brink S, Clevers H, van der Ent C K, Middendorp S and M Beekman J M. A functional CFTR assay using primary cystic fibrosis intestinal organoids. Nat Med. 2013 July; 19(7):939-45).
3. Enteroid Cell Harvesting and Seeding […]
Enteroid cells were incubated with test compound in IEMM for 18-24 hours at 37° C., 95% humidity and 5% CO2. […] Chloride transport was initiated by addition of Chloride Free Dye Stimulation Solution and the fluorescence signal was read for 15 min. […] Chloride transport was then expressed as a percentage of the chloride transport following treatment with 3 μM (S)—N-((6-aminopyridin-2-yl)sulfonyl)-6-(3-fluoro-5-isobutoxyphenyl)-2-(2,2,4-trimethylpyrrolidin-1-yl)nicotinamide, 3 μM (R)-1-(2,2-difluorobenzo[d][1,3]dioxol-5-yl)-N-(1-(2,3-dihydroxypropyl)-6-fluoro-2-(1-hydroxy-2-methylpropan-2-yl)-1H-indol-5-yl)cyclopropanecarboxamide and 300 nM acute N-[2,4-bis(1,1-dimethylethyl)-5-hydroxyphenyl]-1,4-dihydro-4-oxoquinoline-3-carboxamide triple combination control (% Activity). […]
Enteroid cells were incubated with test compound in IEMM for 18-24 hours at 37° C., 95% humidity and 5% CO2. […] Chloride transport was initiated by addition of Chloride Free Dye Stimulation Solution and the fluorescence signal was read for 15 min. […]

T1 sequence (P13569 with tags, fused parts or gaps DEL508-508): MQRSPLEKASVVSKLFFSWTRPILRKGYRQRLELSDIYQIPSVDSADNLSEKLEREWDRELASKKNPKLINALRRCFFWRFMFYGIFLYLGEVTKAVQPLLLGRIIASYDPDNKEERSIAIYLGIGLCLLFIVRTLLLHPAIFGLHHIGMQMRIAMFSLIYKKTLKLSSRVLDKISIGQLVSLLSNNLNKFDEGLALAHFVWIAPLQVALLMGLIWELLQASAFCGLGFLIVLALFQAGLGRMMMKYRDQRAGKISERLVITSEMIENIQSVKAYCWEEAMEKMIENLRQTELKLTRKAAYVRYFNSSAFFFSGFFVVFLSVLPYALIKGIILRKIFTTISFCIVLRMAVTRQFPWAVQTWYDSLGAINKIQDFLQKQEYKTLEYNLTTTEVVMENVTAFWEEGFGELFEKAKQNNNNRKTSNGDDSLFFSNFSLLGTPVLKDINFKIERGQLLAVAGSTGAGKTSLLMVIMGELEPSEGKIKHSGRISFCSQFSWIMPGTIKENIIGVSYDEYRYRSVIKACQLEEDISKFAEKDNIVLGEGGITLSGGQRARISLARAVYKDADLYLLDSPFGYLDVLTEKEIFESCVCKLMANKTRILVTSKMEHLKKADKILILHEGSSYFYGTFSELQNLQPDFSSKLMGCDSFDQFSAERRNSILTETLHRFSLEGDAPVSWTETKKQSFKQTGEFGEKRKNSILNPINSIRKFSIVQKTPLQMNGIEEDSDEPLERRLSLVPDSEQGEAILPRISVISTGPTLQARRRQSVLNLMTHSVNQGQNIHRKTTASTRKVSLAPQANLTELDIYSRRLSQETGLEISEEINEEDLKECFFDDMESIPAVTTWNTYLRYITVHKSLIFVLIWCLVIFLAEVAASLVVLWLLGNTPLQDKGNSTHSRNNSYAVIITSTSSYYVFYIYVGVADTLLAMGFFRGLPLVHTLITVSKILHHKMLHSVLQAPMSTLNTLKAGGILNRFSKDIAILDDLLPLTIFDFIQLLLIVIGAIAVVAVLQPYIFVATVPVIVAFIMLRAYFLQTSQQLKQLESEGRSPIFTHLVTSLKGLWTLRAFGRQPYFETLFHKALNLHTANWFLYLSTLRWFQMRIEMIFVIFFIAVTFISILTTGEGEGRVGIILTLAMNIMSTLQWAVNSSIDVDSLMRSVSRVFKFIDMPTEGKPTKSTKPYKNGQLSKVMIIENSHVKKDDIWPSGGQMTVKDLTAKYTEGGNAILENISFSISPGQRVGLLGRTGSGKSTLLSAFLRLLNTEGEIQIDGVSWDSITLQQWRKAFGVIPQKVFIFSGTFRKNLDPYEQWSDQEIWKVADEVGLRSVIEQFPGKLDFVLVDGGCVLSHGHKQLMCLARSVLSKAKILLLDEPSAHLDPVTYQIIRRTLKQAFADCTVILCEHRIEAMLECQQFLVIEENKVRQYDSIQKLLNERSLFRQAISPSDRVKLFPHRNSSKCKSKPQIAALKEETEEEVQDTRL
Chain of CFTR-mediated chloride transport in human intestinal epithelial enteroid cells (P13569 whole entry): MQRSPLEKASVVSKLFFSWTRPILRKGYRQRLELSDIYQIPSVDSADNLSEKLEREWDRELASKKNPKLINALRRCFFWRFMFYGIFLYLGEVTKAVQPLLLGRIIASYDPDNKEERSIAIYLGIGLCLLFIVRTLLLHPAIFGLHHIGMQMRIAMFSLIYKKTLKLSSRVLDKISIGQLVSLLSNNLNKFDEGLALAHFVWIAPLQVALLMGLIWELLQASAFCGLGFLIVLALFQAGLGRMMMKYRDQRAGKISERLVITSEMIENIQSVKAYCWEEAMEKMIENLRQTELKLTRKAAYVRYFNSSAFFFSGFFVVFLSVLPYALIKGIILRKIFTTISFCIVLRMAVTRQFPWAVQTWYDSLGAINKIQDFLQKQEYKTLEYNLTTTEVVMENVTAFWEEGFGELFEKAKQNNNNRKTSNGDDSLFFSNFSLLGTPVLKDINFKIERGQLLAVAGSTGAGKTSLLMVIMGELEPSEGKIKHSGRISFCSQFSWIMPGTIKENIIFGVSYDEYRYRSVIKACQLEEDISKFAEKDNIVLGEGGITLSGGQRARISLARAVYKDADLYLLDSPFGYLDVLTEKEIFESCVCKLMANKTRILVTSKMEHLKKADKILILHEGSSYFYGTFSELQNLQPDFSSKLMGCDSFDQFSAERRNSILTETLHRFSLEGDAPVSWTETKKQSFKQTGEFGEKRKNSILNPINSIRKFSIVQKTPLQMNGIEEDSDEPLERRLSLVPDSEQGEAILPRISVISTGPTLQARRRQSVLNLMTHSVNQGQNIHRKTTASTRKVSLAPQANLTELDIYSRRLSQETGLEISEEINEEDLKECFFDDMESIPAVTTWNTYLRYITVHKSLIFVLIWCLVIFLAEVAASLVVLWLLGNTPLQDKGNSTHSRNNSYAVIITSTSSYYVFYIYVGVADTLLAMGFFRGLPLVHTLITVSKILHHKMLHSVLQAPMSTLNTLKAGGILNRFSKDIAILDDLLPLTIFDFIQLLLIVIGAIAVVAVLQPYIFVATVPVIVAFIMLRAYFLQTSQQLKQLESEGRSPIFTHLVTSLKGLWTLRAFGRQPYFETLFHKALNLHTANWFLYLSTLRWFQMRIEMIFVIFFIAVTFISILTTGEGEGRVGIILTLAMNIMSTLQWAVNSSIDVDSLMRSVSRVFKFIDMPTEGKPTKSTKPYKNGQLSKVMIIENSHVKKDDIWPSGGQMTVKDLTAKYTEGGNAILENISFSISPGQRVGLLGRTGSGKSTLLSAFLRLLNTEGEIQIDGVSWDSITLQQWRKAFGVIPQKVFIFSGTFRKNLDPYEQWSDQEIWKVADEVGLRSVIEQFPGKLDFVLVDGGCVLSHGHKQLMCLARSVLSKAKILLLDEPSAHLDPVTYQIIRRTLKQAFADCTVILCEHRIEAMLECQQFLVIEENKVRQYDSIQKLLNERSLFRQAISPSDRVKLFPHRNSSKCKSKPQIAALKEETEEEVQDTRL
Chain of CFTR (P13569 whole entry): as above

Row | Ent. Max Activity (%) [1] | Emax (F508del in NIH 3T3 cells) | SMILES | also measured
1 |  |  | C[C@@H]1CCCCC[C@](O)(C(F)(F)F)C2=NN=C(O2)c2nc(c(C(F)(F)F)cc2N)O1 [(6R,12R)-17-Amino-12-methyl-6,15-bis(trifluoromethyl)-13,19-dioxa-3,4,18-triazatricyclo[12.3.1.12,5]nonadeca-1(18),2,4,14,16-pentaen-6-ol] | CFTR modulating activity (CFTR potentiator activity) (CFTR): confirmed
2 | ++ (++ is 30-60%) |  | Cc1ccccc1-c1nc(NS(=O)(=O)c2cnn(C)c2)cc2oc3ccccc3c12 [Compound 79, 1-Methyl-N-[1-(o-tolyl)benzofuro[3,2-c]pyridin-3-yl]pyrazole-4-sulfonamide] | EC50 ([1]; enteroid cells, 18-24 hours incubation, acute 10 μM forskolin and 300 nM ivacaftor, read-out: Ent. EC50): 3 to 30 µM
3 | + (+ is <300%) |  | Cc1ccccc1-c1cc2oc3ccccc3c2c(NS(=O)(=O)c2cnn(C)c2)n1 [Compound 80] | 
4 |  | < 30% | Cc1cc(C)cc(-n2c(NS(=O)(=O)c3ccccc3)nc3ccc(C(C)(C)C)cc32)c1 [Compound 92] | 
5 |  | < 30% | CC(C)(C)c1ccc2nc(NS(=O)(=O)c3ccccc3)[nH]c2c1 [Compound 93] | 
6 |  | < 30% | Cc1cc(C)c(Oc2cc(C(C)(C)C)cc3nnc(NS(=O)(=O)c4cccc(N)c4)n23)c(C)c1 [Compound 94] | 
7 |  | < 30% | Cc1cc(C)c(Oc2cc(C(C)(C)C)cc3nnc(NS(=O)(=O)c4ccccc4)n23)c(C)c1 [Compound 95] | 

Row | SMILES | Ent. Max Activity (%) [1] | Emax (F508del in NIH 3T3 cells) | also measured
8 | Cc1cc(C)c(-n2nc(NS(=O)(=O)c3ccccc3)c3ccc(C(C)(C)C)nc32)c(C)c1 [Compound 33, N-[6-tert-butyl-1-(2,4,6-trimethylphenyl)pyrazolo[3,4-b]pyridin-3-yl]benzenesulfonamide] | + (+ is <300%) |  | EC50 (F508del in NIH 3T3 cells; incubated with compound 18-24 hours at 37° C., forskolin activation): < 1 µM

From US20230373974A1, “MODULATORS OF CYSTIC FIBROSIS TRANSMEMBRANE CONDUCTANCE REGULATOR” (VERTEX PHARMACEUTICALS INCORPORATED, priority 2020, published 2023)
